Source: ChEMBL document CHEMBL1138758, “Efficient method for high-throughput virtual screening based on flexible docking: discovery of novel acetylcholinesterase inhibitors” (J Med Chem, 2004)

assay: Inhibitory activity towards acetylcholine esterase (AChE); set-up: species or system Tetronarce californica

Q: With `CC(Cc1ccc(O)cc1)C1CCC(C)C(c2ccc(O)cc2)C1` (centres undefined) as the compound, how does the IC50 read?
A: The IC50 was 0.62 µM.

Q: For `CCCc1cc(-n2cccn2)ccc1C(=O)ONC(=N)c1ccc(C(F)(F)F)cc1`, which IC50 is on record?
A: Its IC50 is 13 µM.

Q: With `Cc1c(/N=C/c2ccccc2O)cc2c(c1N)C(C)(C)CC2(C)C` as the compound, how does the IC50 read?
A: Its IC50 is 16 µM.

Q: For `Cc1nc(N)ncc1-c1nnnn1-c1ccc(-c2ccccc2)cc1`, which IC50 is on record?
A: Its IC50 is 27 µM.

Q: Which IC50 does the source give for `Fc1ccc(N(Cc2ccc3c(c2)OCO3)C(=S)Nc2cccc(C(F)(F)F)c2)cc1` here?
A: The IC50 was 8 µM.

Q: For `Cc1cc(C2(c3cc(C)c(O)c(C)c3)CCCCC2)cc(C)c1O`, which IC50 is on record?
A: Its IC50 is 15 µM.

Q: With `O=C(CC1S/C(=N/c2ccc(C3CCCCC3)cc2)NC1=O)Nc1ccc(OC(F)(F)F)cc1` (centres undefined) as the compound, how does the IC50 read?
A: The IC50 was 2.9 µM.

Q: With `CN(C)c1ccc(-c2c3cc(O)c(=O)cc-3oc3cc(O)c(O)cc23)cc1` as the compound, how does the IC50 read?
A: The IC50 was 22 µM.

Q: Which IC50 does the source give for `COc1ccc(/N=C/c2cn(-c3ccc(OC)cc3)cc2/C=N/c2ccc(OC)cc2)cc1` here?
A: Its IC50 is 14 µM.

Q: With `C/C(=N/O)c1ccc(Cl)c(NC(=O)c2c(-c3ccccc3Cl)noc2C)c1` as the compound, how does the IC50 read?
A: The IC50 was 6.7 µM.

Q: With `COc1cc(N)c(Cl)cc1C(=O)NC1CCN(Cc2ccccc2)CC1` [CLEBOPRIDE] as the compound, how does the IC50 read?
A: Its IC50 is 0.89 µM.

Q: Which IC50 does the source give for `O=C(O[C@@H]1Cc2c(O)cc(O)cc2O[C@@H]1c1ccc(O)c(O)c1)c1cc(O)c(O)c(O)c1` [EPICATECHIN GALLATE] here?
A: Its IC50 is 28 µM.

Q: With `O=C(Nc1cccc(C2=NCCN2)c1)Nc1cccc(C2=NCCN2)c1` [IMIDOCARB] as the compound, how does the IC50 read?
A: The IC50 was 0.59 µM.

Q: For `CNC(=O)Oc1ccc2c(c1)[C@]1(C)CCN(C)[C@@H]1N2C` [PHYSOSTIGMINE], which IC50 is on record?
A: Its IC50 is 0.36 µM.
